# Source: patent publication US9737542B2, “Pyrrolotriazine kinase inhibitors” (BRISTOL-MYERS SQUIBB COMPANY, priority 2013, dated 2017)
# Target: GST-Xa-hAAK1 (Homo sapiens (Human), UniProt Q2M2I8)
# Assay: AAK1 Kinase Assay
# Assay type: biochemical
# Settings: ATP 22 μM; 3 hours at room temperature
# Experimental: The assays were performed in U-bottom 384-well plates. […] The reactions were initiated by the combination of bacterially expressed, GST-Xa-hAAK1 with substrates and test compounds. The reactions were incubated at room temperature for 3 hours and terminated by adding 60 μl of 35 mM EDTA buffer to each sample. The reactions were analyzed on the Caliper LabChip 3000 (Caliper, Hopkinton, Mass.) by electrophoretic separation of the fluorescent substrate and phosphorylated product. Inhibition data were calculated by comparison to EDTA quenched control reactions for 100% inhibition and vehicle-only reactions for 0% inhibition. […] Dose response curves were generated to determine the concentration required inhibiting 50% of kinase activity (IC50). Compounds were dissolved at 10 mM in dimethylsulfoxide (DMSO) and evaluated at eleven concentrations. IC50 values were derived by non-linear regression analysis.
# Sequence of GST-Xa-hAAK1 (Q2M2I8 whole entry): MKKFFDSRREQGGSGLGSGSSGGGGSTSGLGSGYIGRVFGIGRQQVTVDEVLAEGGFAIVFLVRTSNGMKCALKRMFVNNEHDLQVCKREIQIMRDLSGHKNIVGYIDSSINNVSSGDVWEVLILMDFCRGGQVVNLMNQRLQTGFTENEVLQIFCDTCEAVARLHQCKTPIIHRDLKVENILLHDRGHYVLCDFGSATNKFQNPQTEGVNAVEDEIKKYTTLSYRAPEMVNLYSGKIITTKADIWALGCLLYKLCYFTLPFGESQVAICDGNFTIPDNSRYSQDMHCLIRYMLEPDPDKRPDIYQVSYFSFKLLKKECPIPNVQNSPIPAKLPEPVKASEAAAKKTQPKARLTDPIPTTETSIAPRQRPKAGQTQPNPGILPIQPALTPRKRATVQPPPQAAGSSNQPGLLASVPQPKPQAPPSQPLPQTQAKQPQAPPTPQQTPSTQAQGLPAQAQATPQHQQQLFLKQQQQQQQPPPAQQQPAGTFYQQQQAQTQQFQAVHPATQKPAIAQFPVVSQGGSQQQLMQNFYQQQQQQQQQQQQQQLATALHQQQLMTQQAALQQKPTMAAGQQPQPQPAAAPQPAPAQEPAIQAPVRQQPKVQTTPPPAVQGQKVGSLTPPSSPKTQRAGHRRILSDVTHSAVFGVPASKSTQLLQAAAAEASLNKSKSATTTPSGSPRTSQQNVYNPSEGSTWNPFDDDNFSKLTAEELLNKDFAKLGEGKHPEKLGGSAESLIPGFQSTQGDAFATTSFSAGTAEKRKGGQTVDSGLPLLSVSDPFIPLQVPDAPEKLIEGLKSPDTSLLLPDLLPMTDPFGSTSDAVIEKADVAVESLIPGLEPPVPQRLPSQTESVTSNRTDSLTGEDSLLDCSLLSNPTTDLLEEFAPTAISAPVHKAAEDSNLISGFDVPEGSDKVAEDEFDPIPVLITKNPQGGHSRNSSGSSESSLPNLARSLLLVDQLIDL
row,IC50,Structure (SMILES)
1,0.0073 µM,"CC(C)n1nnc(-c2cccc(Nc3ncnn4ccc(CN5CCC(N)CC5)c34)c2)n1 [Example 8, 5-((4-aminopiperidin-1-yl)methyl)-N-(3-(2-isopropyl-2H-tetrazol-5-yl)phenyl)pyrrolo[2,1-f][1,2,4]triazin-4-amine]"
2,0.446 µM,"Cn1ccc(-c2cccc(Nc3ncnn4ccc(CN5CCC(N)CC5)c34)c2)n1 [Example 12, 5-((4-aminopiperidin-1-yl)methyl)-N-(3-(1-methyl-1H-pyrazol-3-yl)phenyl)pyrrolo[2,1-f][1,2,4]triazin-4-amine]"
3,2.12 µM,"Cc1nnc(-c2cccc(Nc3ncnn4ccc(CN5CC(N)C5)c34)c2)s1 [Example 19, 5-((3-aminoazetidin-1-yl)methyl)-N-(3-(5-methyl-1,3,4-thiadiazol-2-yl)phenyl)pyrrolo[2,1-f][1,2,4]triazin-4-amine]"
4,0.014 µM,"NC1CCN(Cc2ccn3ncnc(Nc4cccc(-c5noc(C6CCCCC6)n5)c4)c23)CC1 [Example 22, 5-((4-aminopiperidin-1-yl)methyl)-N-(3-(5-cyclohexyl-1,2,4-oxadiazol-3-yl)phenyl)pyrrolo[2,1-f][1,2,4]triazin-4-amine]"

# Same assay, conditions: ATP 22 μM; 3 hours at room temperature; listed as IC50 ranges
row,Structure (SMILES),IC50
1,"NC1CCN(Cc2ccn3ncnc(Nc4cccc(-c5cnco5)c4)c23)CC1 [Example 1, 5-((4-aminopiperidin-1-yl)methyl)-N-(3-(oxazol-5-yl)phenyl)pyrrolo[2,1-f][1,2,4]triazin-4-amine]",0.1 to 1 µM
2,"CC(C)c1nc(-c2cccc(Nc3ncnn4ccc(CN5CCC(N)CC5)c34)c2)no1 [Example 2, 5-((4-aminopiperidin-1-yl)methyl)-N-(3-(5-isopropyl-1,2,4-oxadiazol-3-yl)phenyl)pyrrolo[2,1-f][1,2,4]triazin-4-amine]",0.01 to 0.1 µM
3,"CC(C)c1nc(-c2ccc(O)c(Nc3ncnn4ccc(CN5CCC(N)CC5)c34)c2)no1 [Example 3, 2-((5-((4-aminopiperidin-1-yl)methyl)pyrrolo[2,1-f][1,2,4]triazin-4-yl)amino)-4-(5-isopropyl-1,2,4-oxadiazol-3-yl)phenol]",0.01 to 0.1 µM
4,"C=Cc1cccc(Nc2ncnn3ccc(CN4CCC(N)CC4)c23)c1 [Example 4, 5-((4-aminopiperidin-1-yl)methyl)-N-(3-vinylphenyl)pyrrolo[2,1-f][1,2,4]triazin-4-amine]",0.1 to 1 µM
5,"CC(C)(C)c1nc(-c2cccc(Nc3ncnn4ccc(CN5CCC(N)CC5)c34)c2)no1 [Example 5, 5-((4-aminopiperidin-1-yl)methyl)-N-(3-(5-(tert-butyl)-1,2,4-oxadiazol-3-yl)phenyl)pyrrolo[2,1-f][1,2,4]triazin-4-amine]",0.01 to 0.1 µM
6,"CCC(C)(C)c1nc(-c2cccc(Nc3ncnn4ccc(CN5CCC(N)CC5)c34)c2)no1 [Example 6, 5-((4-aminopiperidin-1-yl)methyl)-N-(3-(5-(tert-pentyl)-1,2,4-oxadiazol-3-yl)phenyl)pyrrolo[2,1-f][1,2,4]triazin-4-amine]",0.01 to 0.1 µM
7,"NC1CCN(Cc2ccn3ncnc(Nc4cc(O)cc(-c5ncco5)c4)c23)CC1 [Example 7, 3-((5-((4-aminopiperidin-1-yl)methyl)pyrrolo[2,1-f][1,2,4]triazin-4-yl)amino)-5-(oxazol-2-yl)phenol]",0.1 to 1 µM
8,"CC(C)c1nnc(-c2cccc(Nc3ncnn4ccc(CN5CCC(N)CC5)c34)c2)s1 [Example 9, 5-((4-aminopiperidin-1-yl)methyl)-N-(3-(5-isopropyl-1,3,4-thiadiazol-2-yl)phenyl)pyrrolo[2,1-f][1,2,4]triazin-4-amine]",0.01 to 0.1 µM
9,"CC(C)(CO)c1nc(-c2cccc(Nc3ncnn4ccc(CN5CCC(N)CC5)c34)c2)no1 [Example 10, 2-(3-(3-((5-((4-aminopiperidin-1-yl)methyl)pyrrolo[2,1-f][1,2,4]triazin-4-yl)amino)phenyl)-1,2,4-oxadiazol-5-yl)-2-methylpropan-1-ol]",0.01 to 0.1 µM
10,"NC1CCN(Cc2ccn3ncnc(Nc4cccc(-c5noc(CCl)n5)c4)c23)CC1 [Example 11, 5-((4-aminopiperidin-1-yl)methyl)-N-(3-(5-(chloromethyl)-1,2,4-oxadiazol-3-yl)phenyl)pyrrolo[2,1-f][1,2,4]triazin-4-amine]",0.1 to 1 µM
11,"Cc1nc(-c2cccc(Nc3ncnn4ccc(CN5CCC(N)CC5)c34)c2)no1 [Example 13, 5-((4-aminopiperidin-1-yl)methyl)-N-(3-(5-methyl-1,2,4-oxadiazol-3-yl)phenyl)pyrrolo[2,1-f][1,2,4]triazin-4-amine]",0.1 to 1 µM
12,"NC1CCN(Cc2ccn3ncnc(Nc4cccc(-c5csnn5)c4)c23)CC1 [Example 14, N-(3-(1,2,3-thiadiazol-4-yl)phenyl)-5-((4-aminopiperidin-1-yl)methyl)pyrrolo[2,1-f][1,2,4]triazin-4-amine]",0.1 to 1 µM
13,"CCc1nnc(-c2cccc(Nc3ncnn4ccc(CN5CCC(N)CC5)c34)c2)[nH]1 [Example 15, 5-((4-aminopiperidin-1-yl)methyl)-N-(3-(5-ethyl-4H-1,2,4-triazol-3-yl)phenyl)pyrrolo[2,1-f][1,2,4]triazin-4-amine]",0.01 to 0.1 µM
14,"NC1CCN(Cc2ccn3ncnc(Nc4cccc(-c5nc(-c6ccccc6)no5)c4)c23)CC1 [Example 16, 5-((4-aminopiperidin-1-yl)methyl)-N-(3-(3-phenyl-1,2,4-oxadiazol-5-yl)phenyl)pyrrolo[2,1-f][1,2,4]triazin-4-amine]",0.1 to 1 µM
15,"Cc1nnc(-c2cccc(Nc3ncnn4ccc(CN5CCC(N)CC5)c34)c2)s1 [Example 17, 5-((4-aminopiperidin-1-yl)methyl)-N-(3-(5-methyl-1,3,4-thiadiazol-2-yl)phenyl)pyrrolo[2,1-f][1,2,4]triazin-4-amine]",0.1 to 1 µM
16,"CNC1CCN(Cc2ccn3ncnc(Nc4cccc(-c5nnc(C)s5)c4)c23)CC1 [Example 18, N-(3-(5-methyl-1,3,4-thiadiazol-2-yl)phenyl)-5-((4-(methylamino)piperidin-1-yl)methyl)pyrrolo[2,1-f][1,2,4]triazin-4-amine]",0.1 to 1 µM
17,"Cc1nnc(-c2cccc(Nc3ncnn4ccc(CN5CC6CNCC6C5)c34)c2)s1 (stereo not shown) [Example 20, 5-((hexahydropyrrolo[3,4-c]pyrrol-2(1H)-yl)methyl)-N-(3-(5-methyl-1,3,4-thiadiazol-2-yl)phenyl)pyrrolo[2,1-f][1,2,4]triazin-4-amine]",1 to 5 µM

# The next lines start with the values.
row,IC50,Structure (SMILES)
1,0.01 to 0.1 µM,"CCCc1nnc(-c2cccc(Nc3ncnn4ccc(CN5CCC(N)CC5)c34)c2)s1 [Example 21, 5-((4-aminopiperidin-1-yl)methyl)-N-(3-(5-propyl-1,3,4-thiadiazol-2-yl)phenyl)pyrrolo[2,1-f][1,2,4]triazin-4-amine]"
2,0.1 to 1 µM,"NC1CCN(Cc2ccn3ncnc(Nc4cccc(-c5nnc(C6CC6)s5)c4)c23)CC1 [Example 23, 5-((4-aminopiperidin-1-yl)methyl)-N-(3-(5-cyclopropyl-1,3,4-thiadiazol-2-yl)phenyl)pyrrolo[2,1-f][1,2,4]triazin-4-amine]"
3,0.01 to 0.1 µM,"CNC1CCN(Cc2ccn3ncnc(Nc4cccc(-c5nnc(C6CC6)s5)c4)c23)CC1 [Example 24, N-(3-(5-cyclopropyl-1,3,4-thiadiazol-2-yl)phenyl)-5-((4-(methylamino)piperidin-1-yl)methyl)pyrrolo[2,1-f][1,2,4]triazin-4-amine]"
4,0.1 to 1 µM,"NC1CN(Cc2ccn3ncnc(Nc4cccc(-c5nnc(C6CC6)s5)c4)c23)C1 [Example 25, 5-((3-aminoazetidin-1-yl)methyl)-N-(3-(5-cyclopropyl-1,3,4-thiadiazol-2-yl)phenyl)pyrrolo[2,1-f][1,2,4]triazin-4-amine]"
5,0.1 to 1 µM,"c1cc(Nc2ncnn3ccc(CN4CC5CNCC5C4)c23)cc(-c2nnc(C3CC3)s2)c1 (stereo not shown) [Example 26, N-(3-(5-cyclopropyl-1,3,4-thiadiazol-2-yl)phenyl)-5-((hexahydropyrrolo[3,4-c]pyrrol-2(1H)-yl)methyl)pyrrolo[2,1-f][1,2,4]triazin-4-amine]"
6,0.1 to 1 µM,"CNC1CCN(Cc2ccn3ncnc(Nc4cccc(-c5nnc(C(C)C)s5)c4)c23)CC1 [Example 27, N-(3-(5-isopropyl-1,3,4-thiadiazol-2-yl)phenyl)-5-((4-(methylamino)piperidin-1-yl)methyl)pyrrolo[2,1-f][1,2,4]triazin-4-amine]"
7,0.1 to 1 µM,"CC(C)c1nnc(-c2cccc(Nc3ncnn4ccc(CN5CC(N)C5)c34)c2)s1 [Example 28, 5-((3-aminoazetidin-1-yl)methyl)-N-(3-(5-isopropyl-1,3,4-thiadiazol-2-yl)phenyl)pyrrolo[2,1-f][1,2,4]triazin-4-amine]"
8,0.1 to 1 µM,"CC(C)c1nnc(-c2cccc(Nc3ncnn4ccc(CN5CC6CNCC6C5)c34)c2)s1 (stereo not shown) [Example 29, 5-((hexahydropyrrolo[3,4-c]pyrrol-2(1H)-yl)methyl)-N-(3-(5-isopropyl-1,3,4-thiadiazol-2-yl)phenyl)pyrrolo[2,1-f][1,2,4]triazin-4-amine]"
9,0.1 to 1 µM,"CNC1CCN(Cc2ccn3ncnc(Nc4cccc(-c5nnc(C(C)C)s5)c4)c23)C1 (stereo not shown) [Example 30, N-(3-(5-isopropyl-1,3,4-thiadiazol-2-yl)phenyl)-5-((3-(methylamino)pyrrolidin-1-yl)methyl)pyrrolo[2,1-f][1,2,4]triazin-4-amine]"
10,0.1 to 1 µM,"CC(C)c1nnc(-c2cccc(Nc3ncnn4ccc(CN5CCC(CN)C5)c34)c2)s1 (stereo not shown) [Example 31, 5-((3-(aminomethyl)pyrrolidin-1-yl)methyl)-N-(3-(5-isopropyl-1,3,4-thiadiazol-2-yl)phenyl)pyrrolo[2,1-f][1,2,4]triazin-4-amine]"
11,0.1 to 1 µM,"CC(C)c1nnc(-c2cccc(Nc3ncnn4ccc(CN5CCC(N)C5)c34)c2)s1 (stereo not shown) [Example 32, 5-((3-aminopyrrolidin-1-yl)methyl)-N-(3-(5-isopropyl-1,3,4-thiadiazol-2-yl)phenyl)pyrrolo[2,1-f][1,2,4]triazin-4-amine]"
12,0.01 to 0.1 µM,"CC(C)CNC(=O)c1cccc(Nc2ncnn3ccc(CN4CCC(N)CC4)c23)c1 [Example 33, 3-((5-((4-aminopiperidin-1-yl)methyl)pyrrolo[2,1-f][1,2,4]triazin-4-yl)amino)-N-isobutylbenzamide]"
13,0.01 to 0.1 µM,"CC(C)n1nnc(-c2cccc(Nc3ncnn4ccc(CN5CCNCC5)c34)c2)n1 [Example 34, N-(3-(2-isopropyl-2H-tetrazol-5-yl)phenyl)-5-(piperazin-1-ylmethyl)pyrrolo[2,1-f][1,2,4]triazin-4-amine]"
